15 compounds from patent publication US20260042762A1 (Kymera Therapeutics, Inc., priority 2018, published 2026) can be followed below.

The target of this experiment is T1, MerTK (Homo sapiens, UniProt Q12866).
T1 construct: endogenous in cells; host or cells: Jurkat cells
T1 sequence (Q12866 21-999): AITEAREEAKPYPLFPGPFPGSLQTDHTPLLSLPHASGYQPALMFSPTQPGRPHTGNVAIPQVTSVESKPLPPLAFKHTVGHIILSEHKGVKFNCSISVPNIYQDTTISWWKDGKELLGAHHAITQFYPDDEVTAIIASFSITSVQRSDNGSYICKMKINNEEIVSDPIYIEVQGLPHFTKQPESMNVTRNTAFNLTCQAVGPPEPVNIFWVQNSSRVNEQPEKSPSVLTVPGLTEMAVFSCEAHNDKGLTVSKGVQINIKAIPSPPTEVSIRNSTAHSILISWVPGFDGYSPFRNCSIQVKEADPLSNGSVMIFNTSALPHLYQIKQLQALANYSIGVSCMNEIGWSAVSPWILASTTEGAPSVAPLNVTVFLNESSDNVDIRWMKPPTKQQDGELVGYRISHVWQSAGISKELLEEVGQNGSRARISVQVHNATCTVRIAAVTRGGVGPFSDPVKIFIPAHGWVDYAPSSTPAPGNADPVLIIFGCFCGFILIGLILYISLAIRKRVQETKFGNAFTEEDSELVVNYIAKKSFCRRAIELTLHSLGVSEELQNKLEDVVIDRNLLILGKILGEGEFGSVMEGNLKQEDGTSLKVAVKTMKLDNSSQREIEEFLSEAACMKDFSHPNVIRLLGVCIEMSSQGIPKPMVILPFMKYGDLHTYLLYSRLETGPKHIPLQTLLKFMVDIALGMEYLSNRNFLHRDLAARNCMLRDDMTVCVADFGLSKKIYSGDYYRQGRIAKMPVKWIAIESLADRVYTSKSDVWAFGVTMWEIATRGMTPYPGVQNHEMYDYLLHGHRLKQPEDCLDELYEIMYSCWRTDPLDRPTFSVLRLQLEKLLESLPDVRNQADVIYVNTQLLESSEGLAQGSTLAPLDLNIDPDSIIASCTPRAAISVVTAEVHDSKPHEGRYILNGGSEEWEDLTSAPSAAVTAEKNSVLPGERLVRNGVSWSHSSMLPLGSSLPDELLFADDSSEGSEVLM
In words: MerTk degradation in Jurkat cells (Western blot). In kind it is cell-based. The note with it: Jurkat, 4 h, 0.001-1 μM, 4 hour-incubation at 37° C., read-out: Jurkat Max % MerTK Degradation. Summed up:
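Jurkat cells treated 4 h at 37 °C with compound at 0.001-1 μM final. RIPA lysates quantified by BCA, then MerTK probed by Western blot against actin loading control with IR-dye secondaries and Odyssey imaging.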
For orientation: In western blotting, separated proteins are transferred to a membrane and probed.
Turning to `Cn1c(=O)n([C@H]2CCC(=O)NC2=O)c2ccc(CCCN3CC(C4CCN(Cc5ccc(-c6cn([C@H]7CC[C@H](O)CC7)c7nc(NCCC(F)(F)F)ncc67)cc5)CC4)C3)cc21` [I-136, 3-[3-methyl-2-oxo-5-[3-(3-[1-[(4-[7-[trans-4-hydroxycyclohexyl]-2-[(3,3,3-trifluoropropyl)amino]pyrrolo[2,3-d]pyrimidin-5-yl]phenyl)methyl]piperidin-4-yl]azetidin-1-yl)propyl]-1,3-benzodiazol-1-y1]piperidine-2,6-dione; tris(formic acid)], the Dmax was over 50%. On to `Cn1c(=O)n([C@H]2CCC(=O)NC2=O)c2ccc(CCCN3CCC(C4CCN(Cc5ccc(-c6cn([C@H]7CC[C@H](O)CC7)c7nc(NCCC(F)(F)F)ncc67)cc5)CC4)CC3)cc21` [I-137, 3-[3-methyl-2-oxo-5-(3-[1-[(4-[7-[trans-4-hydroxycyclohexyl]-2-[(3,3,3-trifluoropropyl)amino]pyrrolo[2,3-d]pyrimidin-5-yl]phenyl)methyl]-[4,4-bipiperidin]-1-y1]propyl)-1,3-benzodiazol-1-yl]piperidine-2,6-dione], for which the Dmax was over 50%. As for `Cn1c(=O)n([C@H]2CCC(=O)NC2=O)c2cccc(CCCOCCCN3CCN(Cc4ccc(-c5cn([C@H]6CC[C@H](O)CC6)c6nc(NCCC(F)(F)F)ncc56)cc4)CC3)c21` [I-138, 3-[3-methyl-2-oxo-4-[3-(3-[4-[(4-[7-[trans-4-hydroxycyclohexy1]-2-[(3,3,3-trifluoropropyl)amino]pyrrolo[2,3-d]pyrimidin-5-yl]phenyl)methyl]piperazin-1-yl]propoxy)propyl]-1,3-benzodiazol-1-yl]piperidine-2,6-dione], the Dmax was over 50%. Take `Cn1c(=O)n([C@H]2CCC(=O)NC2=O)c2ccc(CCCOCCCN3CCN(Cc4cccc(-c5cn([C@H]6CC[C@H](O)CC6)c6nc(NCCC(F)(F)F)ncc56)c4)CC3)cc21` [I-139, 3-[3-methyl-2-oxo-5-[3-(3-[4-[(3-[7-[trans-4-hydroxycyclohexyl]-2-[(3,3,3-trifluoropropyl)amino]pyrrolo[2,3-d]pyrimidin-5-yl]phenyl)methyl]piperazin-1-yl]propoxy)propy1]-1,3-benzodiazol-1-yl]piperidine-2,6-dione]: the Dmax was over 50%. Regarding `Cn1c(=O)n([C@H]2CCC(=O)NC2=O)c2ccc(CCCOCCCN3CCN(Cc4cn([C@H]5CC[C@H](O)CC5)c5nc(NCCC(F)(F)F)ncc45)CC3)cc21` [I-140, 3-[3-methyl-2-oxo-5-(3-[3-[4-([7-[trans-4-hydroxycyclohexy1]-2-[(3,3,3-trifluoropropyl)amino]pyrrolo[2,3-d]pyrimidin-5-yl]methyl)piperazin-1-yl]propoxy]propyl)-1,3-benzodiazol-1-yl]piperidine-2,6-dione; formic acid], the Dmax fell in the range of 20 to 50%.

For `Cn1c(=O)n([C@H]2CCC(=O)NC2=O)c2ccc(CCCOCCCN3CCN(Cc4ccc(-c5cn([C@H]6CC[C@@](C)(O)CC6)c6nc(NCCC(F)(F)F)ncc56)cc4)CC3)cc21` [I-141, 3-[3-methyl-2-oxo-5-[3-(3-[4-[(4-[7-[cis-4-hydroxy-4-methylcyclohexyl]-2-[(3,3,3-trifluoropropyl)amino]pyrrolo[2,3-d]pyrimidin-5-y1]phenyl)methyl]piperazin-1-yl]propoxy)propyl]-1,3-benzodiazol-1-yl]piperidine-2,6-dione], the Dmax is over 50%.

For the compound `Cn1c(=O)n([C@H]2CCC(=O)NC2=O)c2ccc(CCCOCCCN3CCN(Cc4ccc(-c5cn([C@H]6CC[C@](C)(O)CC6)c6nc(NCCC(F)(F)F)ncc56)cc4)CC3)cc21` [I-142, 3-[3-methyl-2-oxo-5-[3-(3-[4-[(4-[7-[trans-4-hydroxy-4-methylcyclohexyl]-2-[(3,3,3-trifluoropropyl)amino]pyrrolo[2,3-d]pyrimidin-5-yl]phenyl)methyl]piperazin-1-yl]propoxy)propyl]-1,3-benzodiazol-1-yl]piperidine-2,6-dione], the Dmax is over 50%. For `Cn1c(=O)n([C@H]2CCC(=O)NC2=O)c2ccc(CCO[C@H]3C[C@@H](N4CCN(Cc5ccc(-c6cn([C@H]7CC[C@H](O)CC7)c7nc(NCCC(F)(F)F)ncc67)cc5)CC4)C3)cc21` [I-143, 3-[3-methyl-2-oxo-5-[2-(3-[4-[(4-[7-[trans-4-hydroxycyclohexyl]-2-[(3,3,3-trifluoropropyl)amino]pyrrolo[2,3-d]pyrimidin-5-yl]phenyl)methyl]piperazin-1-yl]cyclobutoxy)ethyl]-1,3-benzodiazol-1-yl]piperidine-2,6-dione; formic acid], the Dmax is over 50%. Turning to `Cn1c(=O)n([C@H]2CCC(=O)NC2=O)c2ccc(CCOC3CN(C4CCN(Cc5ccc(-c6cn([C@H]7CC[C@H](O)CC7)c7nc(NCCC(F)(F)F)ncc67)cc5)CC4)C3)cc21` [I-144, 3-(3-methyl-2-oxo-5-[2-[(1-[1-[(4-[7-[trans-4-hydroxycyclohexy1]-2-[(3,3,3-trifluoropropyl)amino]pyrrolo[2,3-d]pyrimidin-5-yl]phenyl)methyl]piperidin-4-yl]azetidin-3-yl)oxy]ethyl]-1,3-benzodiazol-1-yl)piperidine-2,6-dione; formic acid], the Dmax was over 50%. For the compound `Cn1c(=O)n([C@H]2CCC(=O)NC2=O)c2ccc(CCCC3CCN(C4CCN(Cc5ccc(-c6cn([C@H]7CC[C@H](O)CC7)c7nc(NCCC(F)(F)F)ncc67)cc5)CC4)CC3)cc21` [I-145, 3-[3-methyl-2-oxo-5-(3-[1-[(4-[7-[trans-4-hydroxycyclohexyl]-2-[(3,3,3-trifluoropropyl)amino]pyrrolo[2,3-d]pyrimidin-5-yl]phenyl)methyl]-[1,4-bipiperidin]-4-yl]propyl)-1,3-benzodiazol-1-y1]piperidine-2,6-dione; formic acid], the Dmax was over 50%.

For `Cn1c(=O)n([C@H]2CCC(=O)NC2=O)c2ccc(CCOCCN3CCN(Cc4cccc(-c5cn([C@H]6CC[C@H](O)CC6)c6nc(NCCC(F)(F)F)ncc56)c4)CC3)cc21` [I-146, 3-[3-methyl-2-oxo-5-[2-(2-[4-[(3-[7-[trans-4-hydroxycyclohexy1]-2-[(3,3,3-trifluoropropyl)amino]pyrrolo[2,3-d]pyrimidin-5-yl]phenyl)methyl]piperazin-1-yl]ethoxy)ethyl]-1,3-benzodiazol-1-yl]piperidine-2,6-dione], the Dmax is over 50%. `Cn1c(=O)n([C@H]2CCC(=O)NC2=O)c2ccc(CCOCCN3CCN(Cc4cn([C@H]5CC[C@H](O)CC5)c5nc(NCCC(F)(F)F)ncc45)CC3)cc21` [I-147, 3-[3-methyl-2-oxo-5-(2-[2-[4-([7-[(1r,4r)-4-hydroxycyclohexyl]-2-[(3,3,3-trifluoropropyl)amino]pyrrolo[2,3-d]pyrimidin-5-y1]methyl)piperazin-1-yl]ethoxy]ethyl)-1,3-benzodiazol-1-yl]piperidine-2,6-dione]: the Dmax was under 20%. For the compound `Cn1c(=O)n([C@H]2CCC(=O)NC2=O)c2ccc(COCCCN3CCN(Cc4ccc(-c5cn([C@H]6CC[C@H](O)CC6)c6nc(NCCC(F)(F)F)ncc56)cc4)CC3)cc21` [I-149, 3-[3-methyl-2-oxo-5-[(3-[4-[(4-[7-[trans-4-hydroxycyclohexy1]-2-[(3,3,3-trifluoropropyl)amino]pyrrolo[2,3-d]pyrimidin-5-yl]phenyl)methyl]piperazin-1-yl]propoxy)methyl]-1,3-benzodiazol-1-y1]piperidine-2,6-dione; formic acid], the Dmax was over 50%. On to `Cn1c(=O)n([C@H]2CCC(=O)NC2=O)c2cccc(COCCCN3CCN(Cc4ccc(-c5cn([C@H]6CC[C@H](O)CC6)c6nc(NCCC(F)(F)F)ncc56)cc4)CC3)c21` [I-150, 3-[3-methyl-2-oxo-4-[(3-[4-[(4-[7-[trans-4-hydroxycyclohexyl]-2-[(3,3,3-trifluoropropyl)amino]pyrrolo[2,3-d]pyrimidin-5-yl]phenyl)methyl]piperazin-1-y1]propoxy)methyl]-1,3-benzodiazol-1-yl]piperidine-2,6-dione], for which the Dmax was over 50%. Turning to `Cn1c(=O)n([C@H]2CCC(=O)NC2=O)c2ccc(COCCN3CCN(Cc4ccc(-c5cn([C@H]6CC[C@H](O)CC6)c6nc(NCCC(F)(F)F)ncc56)cc4)CC3)cc21` [I-151, trans-3-[3-methyl-2-oxo-5-[(2-[4-[(4-[7-[4-hydroxycyclohexy1]-2-[(3,3,3-trifluoropropyl)amino]pyrrolo[2,3-d]pyrimidin-5-y1]phenyl)methyl]piperazin-1-yl]ethoxy)methyl]-1,3-benzodiazol-1-yl]piperidine-2,6-dione; formic acid], the Dmax was over 50%.
